For one series, the system named is SARS-CoV-2 FSE (−1 PRF). In words: cells. It is filed as cell-based.
The test system of a further series is HEK293T cells. Briefly: Cell viability in the high-throughput screen (cell nuclei numbers). The method, then: HEK293T cells were plated in 384 well plates at the density of 5,000 cells/well. Cells were treated by 10 μM candidate compounds 30 min before transfection of 15 ng mCherry-FSE-GFP(−1) plasmid DNA in each well. 24 hours after transfection, cell nuclei were stained with Hoechst dye. Cell nuclei, mCherry, and GFP signals were imaged using an automated fluorescent microscope with a 10x objective, and the acquired images were quantified using the CellProfiler image analysis package. Cell nuclei numbers were quantified as the metric for cell viability. Mean GFP and RFP intensity values were measured in all transfected cells, and GFP/mCherry mean intensity ratios were quantified as the metric for PRF efficiency. The mCherry-GFP fusion plasmid and the mCherry-FSE-GFP(0) plasmid were used as positive and negative controls for elevated and reduced GFP/mCherry ratios, respectively.

The mark [1] stands for this setting: Severe acute respiratory syndrome coronavirus 2, HEK-293T, 24 h; read-out: PERCENT EFFECT 2 (Decreased GFP/Red ratio).
[2] abbreviates: Severe acute respiratory syndrome coronavirus 2, HEK-293T, 24 h; read-out: PERCENT EFFECT (Increased GFP/Red Ratio).
The mark [3] stands for this setting: 10 μM compound, cell nuclei numbers.
[4] abbreviates: Severe acute respiratory syndrome coronavirus 2, HEK-293T, 24 h, read-out: PERCENT EFFECT 2 (Decreased GFP/Red ratio).
The mark [5] stands for this setting: Severe acute respiratory syndrome coronavirus 2, HEK-293T, 24 h, read-out: PERCENT EFFECT (Increased GFP/Red Ratio).

The structures appear in SMILES notation. Where a name gives a salt, the structure may show the parent alone. Read-outs that look alike come from different tables or passages of the source.

On to `CCN(CCO)CCCC(C)Nc1ccnc2cc(Cl)ccc12` (stereo not drawn) [HYDROXYCHLOROQUINE SULFATE], for which, in the series with SARS-CoV-2 FSE (−1 PRF) (setting [1]), the inhibition at 10 µM is -34.5%. Besides, in the series on SARS-CoV-2 FSE (−1 PRF) (setting [2]), the activation at 10 µM was determined as 18.9%. Besides, the “PERCENT VIABILITY” value with HEK293T cells (setting [3]) is given as 346.2%.
As for `O=C([O-])c1ccccc1-c1c2cc(Br)c(=O)cc-2oc2[c]([Hg+])c([O-])c(Br)cc12.[Na+].[Na+].[OH-]` [MERBROMIN], in the series with SARS-CoV-2 FSE (−1 PRF), the “PERCENT EFFECT 2 (Decreased GFP/Red ratio)” value is 53.1% and the “PERCENT EFFECT (Increased GFP/Red Ratio)” value is given as −23.1%. In addition, the “PERCENT VIABILITY” value in the series on HEK293T cells (setting [3]) was found to be 167.4%.
Take `C[C@@H]1O[C@@H](O[C@H]2C[C@@H](O)[C@]3(CO)[C@H]4[C@H](O)C[C@]5(C)[C@@H](C6=CC(=O)OC6)CC[C@]5(O)[C@@H]4CC[C@]3(O)C2)[C@H](O)[C@H](O)[C@H]1O` [Ouabain]: the inhibition at 10 µM in the series with SARS-CoV-2 FSE (−1 PRF) (setting [1]) was -29.7%. Further, the activation at 10 µM in the series with SARS-CoV-2 FSE (−1 PRF) (setting [2]) came to 15.7%. In addition, the “PERCENT VIABILITY” value in the series on HEK293T cells (setting [3]) turned out to be 16.4%.
Turning to `C[C@@H]1O[C@@H](O[C@@H]2C=C3CC[C@@H]4[C@H](CC[C@]5(C)[C@@H](c6ccc(=O)oc6)CC[C@]45O)[C@@]3(C)CC2)[C@H](O)[C@H](O)[C@H]1O` [PROSCILLARIDIN], in the series with SARS-CoV-2 FSE (−1 PRF) (setting [1]), the inhibition at 10 µM is -37.8%. Moreover, the activation at 10 µM in the series on SARS-CoV-2 FSE (−1 PRF) (setting [2]) was found to be 16.5%. For the same compound, the “PERCENT VIABILITY” value in the series with HEK293T cells (setting [3]) was found to be 3.4%.
For `NCCNc1ccc(NCCN)c2c1C(=O)c1ccncc1C2=O` [Pixantrone dimaleate, 6,9-bis[(2-aminoethyl)amino]-5H,10H-benzo[g]isoquinoline-5,10-dione], the inhibition at 10 µM in the series with SARS-CoV-2 FSE (−1 PRF) (setting [1]) is -29.9%. Besides, the activation at 10 µM in the series on SARS-CoV-2 FSE (−1 PRF) (setting [2]) was 15.8%. Further, in the series with HEK293T cells (setting [3]), the “PERCENT VIABILITY” value came to 120.8%.
Regarding `CCN(CC)CCCC(C)Nc1c2ccc(Cl)cc2nc2ccc(OC)cc12` (stereo not drawn) [QUINACRINE HYDROCHLORIDE], in the series with SARS-CoV-2 FSE (−1 PRF) (setting [1]), the inhibition at 10 µM is -40.8%. In addition, the activation at 10 µM in the series with SARS-CoV-2 FSE (−1 PRF) (setting [2]) turned out to be 21.1%. The “PERCENT VIABILITY” value in the series on HEK293T cells (setting [3]) is 147.8%.
As to `Nc1c2c(nc3ccccc13)CCCC2` [TACRINE HYDROCHLORIDE], in the series on SARS-CoV-2 FSE (−1 PRF) (setting [4]), the inhibition at 10 µM was 97.1%. The activation at 10 µM with SARS-CoV-2 FSE (−1 PRF) (setting [5]) was -50.2%. Further, the “PERCENT VIABILITY” value in the series on HEK293T cells (human) stood at 148.9%.
As to `CC[C@]1(O)C[C@@H]2CN(CCc3c([nH]c4ccccc34)[C@@](C(=O)OC)(c3cc4c(cc3OC)N(C)[C@H]3[C@@](O)(C(N)=O)[C@H](O)[C@]5(CC)C=CCN6CC[C@]43[C@@H]65)C2)C1` [Vindesine Sulfate], in the series with SARS-CoV-2 FSE (−1 PRF) (setting [2]), the activation at 10 µM came to 16.8%. Further, the “PERCENT VIABILITY” value with HEK293T cells (setting [3]) was 26.1%; in the series with HEK293T cells (10 μM compound, cell nuclei numbers, listed as Vindesine sulfate) it was 21.3%.
As to `CCC1=C[C@@H]2CN(C1)Cc1c([nH]c3ccccc13)[C@@](C(=O)OC)(c1cc3c(cc1OC)N(C)[C@H]1[C@@](O)(C(=O)OC)[C@H](OC(C)=O)[C@]4(CC)C=CCN5CC[C@]31[C@@H]54)C2` [Vinorelbine], the inhibition at 10 µM in the series on SARS-CoV-2 FSE (−1 PRF) (setting [1]) was -29.2%. The activation at 10 µM with SARS-CoV-2 FSE (−1 PRF) (setting [2]) came to 15.2%. For the same compound, the “PERCENT VIABILITY” value with HEK293T cells (setting [3]) came to 27.8%.
With `Cc1cccc(C)c1N=C1NCCCS1` [XYLAZINE], the inhibition at 10 µM in the series on SARS-CoV-2 FSE (−1 PRF) (setting [1]) is -52.5%. Also, the activation at 10 µM in the series on SARS-CoV-2 FSE (−1 PRF) (setting [2]) amounted to 28.9%. Besides, in the series on HEK293T cells (setting [3]), the “PERCENT VIABILITY” value amounted to 196.8%.
Consider `CC[C@@]1(O)C[C@H](OC2CC(N(C)C)C(OC3CC(O)C(OC4CCC(=O)C(C)O4)C(C)O3)C(C)O2)c2c(cc3c(c2O)C(=O)c2c(O)cccc2C3=O)[C@H]1C(=O)OC` (stereo partly drawn) [aclarubicin, methyl (1R,2R,4S)-4-[4-dimethylamino-5-[4-hydroxy-6-methyl-5-(6-methyl-5-oxooxan-2-yl)oxyoxan-2-yl]oxy-6-methyloxan-2-yl]oxy-2-ethyl-2,5,7-trihydroxy-6,11-dioxo-3,4-dihydro-1H-tetracene-1-carboxylate], for which, in the series on SARS-CoV-2 FSE (−1 PRF) (setting [1]), the inhibition at 10 µM is 33.3%. Besides, the “PERCENT VIABILITY” value is given as 52.5% in the series on HEK293T cells (setting [3]) and 54.77% with HEK293T cells (10 μM compound, cell nuclei numbers, listed as Aclarubicin).
On to `CC(=O)[C@]1(N)Cc2c(O)c3c(c(O)c2[C@@H](O[C@H]2C[C@H](O)[C@H](O)CO2)C1)C(=O)c1ccccc1C3=O.Cl` [amrubicin, (7S,9S)-9-acetyl-9-amino-7-[(2S,4S,5R)-4,5-dihydroxyoxan-2-yl]oxy-6,11-dihydroxy-8,10-dihydro-7H-tetracene-5,12-dione hydrochloride], for which the inhibition at 10 µM in the series with SARS-CoV-2 FSE (−1 PRF) (setting [4]) amounted to 50.5%. The activation at 10 µM with SARS-CoV-2 FSE (−1 PRF) (setting [5]) was -23.7%. Further, the “PERCENT VIABILITY” value in the series on HEK293T cells (human) is 111.0%.
For the compound `CCCC1(CCC)CCC2(CCN(CCCN(CC)CC)C2)CC1` [atiprimod, 3-(8,8-dipropyl-3-azaspiro[4.5]decan-3-yl)-N,N-diethylpropan-1-amine], the inhibition at 10 µM in the series on SARS-CoV-2 FSE (−1 PRF) (setting [1]) was -40.9%. Besides, in the series on SARS-CoV-2 FSE (−1 PRF) (setting [2]), the activation at 10 µM is 21.2%. Moreover, the “PERCENT VIABILITY” value with HEK293T cells (setting [3]) worked out at 7.2%.
As for `O=P(O)(O)OC1[C@H](OP(=O)(O)O)[C@H](O)C(O)[C@H](O)[C@H]1OP(=O)(O)O` (stereo partly drawn) [atrinositol, [(2R,3S,5R,6R)-3,4,5-trihydroxy-2,6-diphosphonooxycyclohexyl] dihydrogen phosphate], in the series with SARS-CoV-2 FSE (−1 PRF) (setting [1]), the inhibition at 10 µM was -61.7%. Further, the activation at 10 µM in the series on SARS-CoV-2 FSE (−1 PRF) (setting [2]) worked out at 30.2%. Besides, the “PERCENT VIABILITY” value with HEK293T cells (human) is 199.8%.
Turning to `Cc1cc(C)c(Nc2ccnc(Nc3ccc(C#N)cc3)n2)c(C)c1` [dapivirine, 4-[[4-[(2,4,6-trimethylphenyl)amino]pyrimidin-2-yl]amino]benzonitrile], the inhibition at 10 µM in the series on SARS-CoV-2 FSE (−1 PRF) (setting [1]) is -51.1%. In the series on SARS-CoV-2 FSE (−1 PRF) (setting [2]), the activation at 10 µM was determined as 24%. Moreover, the “PERCENT VIABILITY” value in the series with HEK293T cells (setting [3]) worked out at 36.7%.
The matching figures for `C[C@H]1O[C@@H](O[C@H]2[C@@H](O)C[C@H](O[C@H]3[C@@H](O)C[C@H](O[C@H]4CC[C@@]5(C)[C@H](CC[C@@H]6[C@@H]5CC[C@]5(C)[C@@H](C7=CC(=O)OC7)CC[C@]65O)C4)O[C@@H]3C)O[C@@H]2C)C[C@H](O)[C@@H]1O` [digitoxin]: -34.2%, 16.8% and 6.9%.
In the case of `CCN1/C(=C/C=C/C=C/c2sc3ccccc3[n+]2CC)Sc2ccccc21.[I-]` [dithiazanine, 3-ethyl-2-[(1Z,3E,5E)-5-(3-ethyl-1,3-benzothiazol-2-ylidene)penta-1,3-dienyl]-1,3-benzothiazol-3-ium iodide], in the series with SARS-CoV-2 FSE (−1 PRF) (setting [1]), the inhibition at 10 µM was determined as 79.7%. The activation at 10 µM in the series on SARS-CoV-2 FSE (−1 PRF) (setting [2]) was -39%. Besides, the “PERCENT VIABILITY” value in the series with HEK293T cells (setting [3]) amounted to 48.28%.
On to `CCOC(=O)Nc1ccc(NCc2ccc(F)cc2)nc1N` [flupirtine, ethyl N-(2-amino-6-{[(4-fluorophenyl)methyl]amino}pyridin-3-yl)carbamate], for which the inhibition at 10 µM in the series on SARS-CoV-2 FSE (−1 PRF) (setting [1]) is -27.2%. Besides, the activation at 10 µM in the series with SARS-CoV-2 FSE (−1 PRF) (setting [2]) was 14.4%. In the series with HEK293T cells (setting [3]), the “PERCENT VIABILITY” value is 110.5%.
Turning to `O=C(Nc1ccc(Cl)cc1)Nc1ccc(Cl)c(C(F)(F)F)c1` [halocarban, 3-(4-chlorophenyl)-1-[4-chloro-3-(trifluoromethyl)phenyl]urea], in the series with SARS-CoV-2 FSE (−1 PRF) (setting [1]), the inhibition at 10 µM was -48.8%. Moreover, in the series with SARS-CoV-2 FSE (−1 PRF) (setting [2]), the activation at 10 µM was found to be 23.9%. Further, the “PERCENT VIABILITY” value in the series with HEK293T cells (setting [3]) is recorded as 54.7%.
As to `CC(=O)[C@]1(O)Cc2c(O)c3c(c(O)c2[C@@H](O[C@H]2C[C@H](N)[C@H](O)[C@H](C)O2)C1)C(=O)c1ccccc1C3=O` [idarubicin], the inhibition at 10 µM in the series on SARS-CoV-2 FSE (−1 PRF) (setting [1]) turned out to be 76.8%. The activation at 10 µM with SARS-CoV-2 FSE (−1 PRF) (setting [2]) is -40.6%. In the series on HEK293T cells (setting [3]), the “PERCENT VIABILITY” value was 10.75%.
Turning to `O=[N+]([O-])c1cc(Cl)cc(-c2cc(Cl)cc([N+](=O)[O-])c2O)c1O` [niclofolan, 4-chloro-2-(5-chloro-2-hydroxy-3-nitrophenyl)-6-nitrophenol], in the series with SARS-CoV-2 FSE (−1 PRF) (setting [1]), the inhibition at 10 µM is -36.6%. Besides, in the series on SARS-CoV-2 FSE (−1 PRF) (setting [2]), the activation at 10 µM is 17.2%. Moreover, the “PERCENT VIABILITY” value with HEK293T cells (setting [3]) was 68.0%.

The values are drawn from patent US20230364074A1, “Compounds and Compositions for Disrupting Programmed Ribosomal Frameshifting” (YALE UNIVERSITY, priority 2020, published 2023).
